Data on 21 molecules can be found in patent publication US12492337B2, “Fluorescent probe, preparation method therefor and use thereof” (FLUORESCENCE DIAGNOSIS (SHANGHAI) BIOTECH COMPANY, priority 2017, dated 2025).

The nature of data set [1]: Quantum yield of free probe not reacted with protein tag. The format is physicochemical. The method, then: (§1) A probe was mixed with a corresponding HaloTag protein tag to obtain a mixed sample. The final concentration of the probe in the mixed sample was 5 μM and the final concentration of the protein tag was 10 μM. The mixed sample was incubated at 37° C. for 1 hour, and the sample was detected using a fluorescence spectrophotometer.

The next data set deals with HaloTag protein tag. The data set can be described thus: Probe mixed with HaloTag protein tag, fluorescence spectrophotometer (Example 86). The format is biochemical. Particulars: 5 μM probe, 10 μM protein tag, 37° C., 1 hour; for Fluorescence enhancement: fluorescence activation multiple after binding protein tag; for Emission/nm: fluorescence emission wavelength. The method, then:
as §1

Data set [2] can be described thus: Viscosity responsiveness: fluorescence intensity in glycerol versus methanol. The data set is classed as physicochemical. Particulars: fluorescence intensity in glycerol to that in methanol. The method, then: The above-mentioned viscosity-responsive fluorescent dye means that the fluorescence intensity of the dye responds to the viscosity of the solution. As the viscosity of the solution increases, the fluorescence intensity increases. Optionally, the viscosity-responsive fluorescent dye is an organic dye molecule which, under the same concentration and excitation wavelength, at 25° C. has a ratio • of the maximum fluorescence emission intensity of the dye in glycerol to the fluorescence intensity in methanol of greater than 2, optionally greater than 5, optionally greater than 10. The concentration of the viscosity-responsive dye ranges from 1×10^−7 M to 1×10^−5 M.

Data set [3] relates to HaloTag protein tags in different subcellular organelles of Hela cells. The data set can be described thus: Labeling HaloTag protein tags in different subcellular organelles of Hela cells (Example 90). Particulars: 0.2 μM probe, 2 hours, no washing; cytoskeleton, mitochondria, nucleus, Golgi, whole cells, lysosomes. The data set is classed as cell-based. The method, then: In order to verify that probe 57, probe 59, probe 60, probe 61, probe 62, and probe 63 can be used to label target proteins located in different organelles. Hela cells were used as examples to detect the effect of probes on labeling HaloTag protein tags in different subcellular organelles. Hela cells were implanted 5000 cells per well in 96-well glass-bottom cell culture plates. After 14 hours, lipo2000 kit was used to transfect the plasmids localized by HaloTag protein tags in different organelles. The original culture medium was removed 24 hours after transfection, and the cells were washed twice with a phenol red-free DMEM medium, and incubated for 2 hours in a phenol red-free medium containing 0.2 μM probes, and the effect of cell labelling was detected by imaging using a Leica TCS-8 confocal microscope.

Data set [4] concerns Hela cells stably expressing HaloTag protein tags. The data set can be described thus: Confocal imaging of labeled Hela cells stably expressing HaloTag protein tags (Example 89). The format is cell-based. As to conditions: Homo sapiens, 5 μM probe, 2 hours, 37° C., confocal microscope, read-out: fluorescence signal enhancement in Hela cells expressing the protein tag. The method, then: (§2) Hela cells are used as an example to test the labeling effect of compounds in mammalian cells. Hela cells and Hela-WT cells (Hela primitive cell, without a protein tag expressed) stably expressing HaloTag protein tags were planted in 14 mm 96-well glass bottom cell culture plates and stabilized for 10 hours. Probe 57, probe 59, probe 60, probe 61, probe 69, probe 75, probe 76, probe 82 were added to the culture medium and diluted to 5 μM, respectively. The cells were incubated in a 37° C. carbon dioxide incubator for 2 hours, and the fluorescence changes of the labeled cells were detected by imaging with a Leica TPS-8 confocal microscope.

The next data set deals with Hela-WT cells. The data set is described as follows: Confocal imaging of Hela-WT cells without protein tag (Example 89). The format is cell-based. As to conditions: 5 μM probe, 2 hours, 37° C., confocal microscope. The method, then: as §2

As to `CN1C(=O)/C(=C\c2cc3c(s2)-c2sc(N(C)CCOC(=O)NCCOCCOCCCCCCCl)cc2C3(C)C)SC1=S` [Probe 55], in data set [1], the “The quantum yield of the free probe” value is recorded as <0.001. In addition, in the data set with HaloTag protein tag, the “The quantum yield after binding to Halo-tag” value worked out at 0.39, the Fluorescence enhancement came to 382 and the Emission/nm was 660 nm. For the same molecule, the ratio in data set [2] was 211.

Consider `CN1C(=O)/C(=C\c2cc3c(s2)-c2sc(N(C)CCOC(=O)NCCOCCOCCCCCCCl)cc2[Si]3(C)C)SC1=S` [Probe 56], for which the “The quantum yield of the free probe” value in data set [1] is on record as <0.001. Also, in the data set with HaloTag protein tag, the “The quantum yield after binding to Halo-tag” value is given as 0.47, the Fluorescence enhancement is 989 and the Emission/nm turned out to be 725 nm. Besides, the ratio in data set [2] was 436.

Consider `CN(CCO)c1ccc(/C=C(\C#N)C(=O)NCCOCCOCCCCCCCl)cc1` [Probe 58], for which, in data set [1], the “The quantum yield of the free probe” value was <0.001. Further, in the data set on HaloTag protein tag, the “The quantum yield after binding to Halo-tag” value was determined as 0.58, the Fluorescence enhancement stood at 519 and the Emission/nm was determined as 480 nm. In data set [2], the ratio was 419.

`CN(C)c1ccc2nc(/C=C(\C#N)C(=O)NCCOCCOCCCCCCCl)ccc2c1` [Probe 62]: in data set [3], the “effect of cell labelling of subcellular organelles” value is listed as “clearly display a variety of subcellular organelle structures without washing”. The “The quantum yield of the free probe” value in data set [1] is recorded as <0.001. In the data set with HaloTag protein tag, the “The quantum yield after binding to Halo-tag” value turned out to be 0.57, the Fluorescence enhancement came to 592 and the Emission/nm is listed as 590 nm. Also, the ratio in data set [2] is reported as 711.

`CN(C)c1ccc2cc(/C=C(\C#N)C(=O)OCCOCCOCCCCCCCl)sc2c1` [Probe 64]: the “The quantum yield of the free probe” value in data set [1] is recorded as <0.001. Also, in the data set with HaloTag protein tag, the “The quantum yield after binding to Halo-tag” value is listed as 0.60, the Fluorescence enhancement came to 519 and the Emission/nm was 585 nm. For the same molecule, in data set [2], the ratio amounted to 632.

Turning to `CN(CCO)c1ccc2cc(/C=C(\C#N)C(=O)NCCOCCOCCCCCCCl)sc2c1` [Probe 65], the “The quantum yield of the free probe” value in data set [1] is <0.001. In addition, in the data set with HaloTag protein tag, the “The quantum yield after binding to Halo-tag” value is on record as 0.66, the Fluorescence enhancement came to 798 and the Emission/nm is given as 570 nm. The ratio in data set [2] turned out to be 391.

As to `CNc1ccc2cc(/C=C(\C#N)C(=O)NCCOCCOCCCCCCCl)sc2c1` [Probe 66], the “The quantum yield of the free probe” value in data set [1] is listed as <0.001. Besides, in the data set with HaloTag protein tag, the “The quantum yield after binding to Halo-tag” value is recorded as 0.53, the Fluorescence enhancement was 512 and the Emission/nm is on record as 550 nm. Moreover, in data set [2], the ratio was 386.

Turning to `CN(C)c1ccc2cc(/C=C(\C#N)C(=O)NCCCCCCCl)sc2c1` [Probe 67], in data set [1], the “The quantum yield of the free probe” value was <0.001. In the data set with HaloTag protein tag, the “The quantum yield after binding to Halo-tag” value amounted to 0.48, the Fluorescence enhancement worked out at 576 and the Emission/nm is given as 580 nm. In addition, the ratio in data set [2] is reported as 276.

Turning to `CN(C)c1ccc2cc(/C=C(\C#N)C(=O)NCCOCCCl)sc2c1` [Probe 68], the “The quantum yield of the free probe” value in data set [1] was <0.001. Besides, in the data set on HaloTag protein tag, the “The quantum yield after binding to Halo-tag” value worked out at 0.50, the Fluorescence enhancement stood at 681 and the Emission/nm is given as 580 nm. In data set [2], the ratio came to 381.

On to `CN(C)c1ccc2nc(/C=C(\C#N)C(=O)NCCOCCOCCCCCCCl)oc2c1` [Probe 69], for which the “The quantum yield of the free probe” value in data set [1] is recorded as <0.001. Also, the fold induction at 5 µM in data set [4] is ~200. Also, in the data set on HaloTag protein tag, the “The quantum yield after binding to Halo-tag” value is 0.47, the Fluorescence enhancement worked out at 491 and the Emission/nm is on record as 610 nm. In addition, the “fluorescent signal in Hela-WT cells” value in the data set with Hela-WT cells is given as “no corresponding fluorescent signal could be detected”. Also, in data set [2], the ratio came to 317.

Regarding `CN(C)c1ccc2nc(/C=C(\C#N)C(=O)NCCOCCOCCCCCCCl)sc2c1` [Probe 71], the “The quantum yield of the free probe” value in data set [1] is listed as 0.0028. In addition, in the data set on HaloTag protein tag, the “The quantum yield after binding to Halo-tag” value is 0.61, the Fluorescence enhancement came out at 475 and the Emission/nm was found to be 620 nm. In data set [2], the ratio is 321.

With `CN(C)c1ccc2nc(/C=C(\C#N)C(=O)OCCOCCOCCCCCCCl)sc2c1` [Probe 72], the “The quantum yield of the free probe” value in data set [1] is recorded as 0.001. In addition, in the data set on HaloTag protein tag, the “The quantum yield after binding to Halo-tag” value amounted to 0.47, the Fluorescence enhancement is reported as 486 and the Emission/nm worked out at 640 nm. The ratio in data set [2] is recorded as 268.

For `CN(C)c1cc2sc3cc(/C=C(\C#N)C(=O)NCCOCCOCCCCCCCl)sc3c2s1` [Probe 75], the “The quantum yield of the free probe” value in data set [1] amounted to 0.0021. For the same molecule, in data set [4], the fold induction at 5 µM was ~200. In the data set on HaloTag protein tag, the “The quantum yield after binding to Halo-tag” value was 0.56, the Fluorescence enhancement amounted to 589 and the Emission/nm turned out to be 620 nm. In the data set on Hela-WT cells, the “fluorescent signal in Hela-WT cells” value was “no corresponding fluorescent signal could be detected”. Besides, the ratio in data set [2] is 500.

On to `CN(C)c1cc2c(s1)-c1sc(/C=C(\C#N)C(=O)NCCOCCOCCCCCCCl)cc1C2(C)C` [Probe 76], for which the “The quantum yield of the free probe” value in data set [1] came to 0.0011. Also, the fold induction at 5 µM in data set [4] is ~200. Besides, in the data set with HaloTag protein tag, the “The quantum yield after binding to Halo-tag” value turned out to be 0.58, the Fluorescence enhancement amounted to 666 and the Emission/nm worked out at 640 nm. Also, the “fluorescent signal in Hela-WT cells” value with Hela-WT cells is given as “no corresponding fluorescent signal could be detected”. Also, the ratio in data set [2] was found to be 386.

On to `CN(C)c1cc2c(s1)-c1sc(/C=C3\SC(=O)N(CCOCCOCCCCCCCl)C3=O)cc1C2(C)C` [Probe 78], for which the “The quantum yield of the free probe” value in data set [1] is <0.001. For the same molecule, in the data set on HaloTag protein tag, the “The quantum yield after binding to Halo-tag” value is on record as 0.41, the Fluorescence enhancement came out at 369 and the Emission/nm is 660 nm. For the same molecule, in data set [2], the ratio amounted to 452.

For the molecule `CN(C)c1cc2c(s1)-c1sc(/C=C3\SC(=S)N(CCOCCOCCCCCCCl)C3=O)cc1C2(C)C` [Probe 79], the “The quantum yield of the free probe” value in data set [1] was <0.001. In the data set with HaloTag protein tag, the “The quantum yield after binding to Halo-tag” value stood at 0.51, the Fluorescence enhancement is given as 419 and the Emission/nm is reported as 725 nm. Also, the ratio in data set [2] is listed as 498.

For the molecule `CN(C)c1ccc(-c2ccc(/C=C3\SC(=O)N(CCOCCOCCCCCCCl)C3=O)s2)s1` [Probe 81], the “The quantum yield of the free probe” value in data set [1] was <0.001. Further, in the data set with HaloTag protein tag, the “The quantum yield after binding to Halo-tag” value was found to be 0.40, the Fluorescence enhancement is given as 563 and the Emission/nm amounted to 743 nm. Further, in data set [2], the ratio stood at 521.

Consider `CN(C)c1cc2c(s1)-c1sc(/C=C(\C#N)C(=S)NCCOCCOCCCCCCCl)cc1C2(C)C` [Probe 82], for which the “The quantum yield of the free probe” value in data set [1] was <0.001. Moreover, in data set [4], the fold induction at 5 µM is ~200. Moreover, in the data set with HaloTag protein tag, the “The quantum yield after binding to Halo-tag” value amounted to 0.51, the Fluorescence enhancement came to 781 and the Emission/nm is 660 nm. Besides, in the data set with Hela-WT cells, the “fluorescent signal in Hela-WT cells” value is listed as “no corresponding fluorescent signal could be detected”. For the same molecule, the ratio in data set [2] turned out to be 475.

In the case of `CN(C)c1cc2c(s1)-c1sc(/C=C(\C#N)C(=S)NCCOCCOCCCCCCCl)cc1[Si]2(C)C` [Probe 83], in data set [1], the “The quantum yield of the free probe” value is on record as <0.001. In the data set on HaloTag protein tag, the “The quantum yield after binding to Halo-tag” value turned out to be 0.53, the Fluorescence enhancement is on record as 456 and the Emission/nm was 680 nm. The ratio in data set [2] was 652.

Regarding `CN(C)c1ccc(-c2ccc(/C=C(\C#N)C(=S)NCCOCCOCCCCCCCl)s2)s1` [Probe 84], the “The quantum yield of the free probe” value in data set [1] is recorded as <0.001. In the data set with HaloTag protein tag, the “The quantum yield after binding to Halo-tag” value is 0.47, the Fluorescence enhancement amounted to 431 and the Emission/nm was found to be 680 nm. For the same molecule, the ratio in data set [2] is listed as 522.

Consider `CN(C)c1ccc2c(c1)C(C)(C)c1cc(/C=C(\C#N)C(=O)NCCOCCOCCCCCCCl)sc1-2` [Probe 86], for which the “The quantum yield of the free probe” value in data set [1] came to 0.0012. In the data set on HaloTag protein tag, the “The quantum yield after binding to Halo-tag” value is listed as 0.52, the Fluorescence enhancement amounted to 618 and the Emission/nm turned out to be 550 nm. Besides, the ratio in data set [2] came to 470.
